Reference: patent US8466107B2, “Fibrin-binding peptides and conjugates thereof” (Bracco Imaging SpA, priority 2006, dated 2013)
Bridge positions count the residues as written; N and C are the ends. Square brackets hold non-standard residues; d marks the D form. Peptide text beside a SMILES is read from it. * marks the point of attachment. 5FAM = O=C1OC2(c3ccc(O)cc3Oc3cc(O)ccc32)c2ccc(C(=O)*)cc21; AEEA = NCCOCCOCC(=O)O

The compounds below were run against DDE (fibrin-derived polypeptide) (Homo sapiens, UniProt P02671+P02675+P02679) (assay: Direct binding fluorescence polarization (FP) assay using 5-carboxyfluorescein labeled peptides). Settings: 20 nM CF5-labeled peptide, serial dilutions of DDE, anisotropy read at 485 nm; read-out: KD (μM) Direct Binding (n = 2).
Protocol: Assay of Fibrin Binding Peptides by Direct Binding Fluorescence Polarization (FP) Procedure using 5-Carboxyfluoresein Labeled Peptides
Protocol • 1. Prepare 1 mL of 40 nM solution of 5-carboxyfluorescein-labeled peptide in HEPES dilution buffer (HDB) with 0.01% Tween. • HDB (10 mM HEPES, 150 mM […], 2 mM CaCl2) • 2. Dilute the 40 nM solution to obtain 1 ml of a 20 nM solution of the test 5-carboxyfluorescein-labeled peptide. • 3. Prepare a solution of DDE at a concentration that will be approximately 5-10 fold greater than the expected KD. For the described assay an 8 μM concentration of DDE was prepared. • 4. Mix equal volumes of the DDE solution with the 40 nM peptide solution. • 5. Prepare serial dilutions of DDE in a solution consisting of the binding buffer with 0.01% Tween20 and 20 nM of the 5-carboxyfluorescein-labeled peptide. • 6. Make dilutions as shown in the following table in a Labsystems 384-well microplate and mix by repeated aspiration and dispensing of the solution into the wells. • 7. Centrifuge the plate at 2000 RPM for 5 minutes to remove air pockets in the wells. • 8. Read in Tecan Polarion Plate Reader at 485 nm to obtain the anisotropy value.
The anisotropy (in mP—millipolarization units) vs the logarithm of the concentration (micromoles/liter) of the receptor concentration is graphed. The dissociation constant is obtained at the midpoint of the curve whose extrema are Afree and Abound where Afree is the anisotropy of the free peptide and Abound is the anisotropy of the fully bound peptide. The theory, methods of operation and mathematical analysis is described in, for example, the following reference: Fluorescence Polarization Technical Resource Guide Technical Resource Guide 4th Edn. Invitrogen Corporation•501 Charmany Drive•Madison, Wis. 53719 USA. Particularly, the mathematical analysis of the data and obtaining binding constants is described in Chapter 8: Analysis of FP Binding Data pp 8-2-8-7.

Sequence of DDE (fibrin-derived polypeptide) (P02671 124-216): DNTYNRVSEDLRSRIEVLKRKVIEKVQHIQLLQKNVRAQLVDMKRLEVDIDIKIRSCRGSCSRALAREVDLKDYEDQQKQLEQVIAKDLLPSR
Sequence of DDE (fibrin-derived polypeptide) (P02675 164-491): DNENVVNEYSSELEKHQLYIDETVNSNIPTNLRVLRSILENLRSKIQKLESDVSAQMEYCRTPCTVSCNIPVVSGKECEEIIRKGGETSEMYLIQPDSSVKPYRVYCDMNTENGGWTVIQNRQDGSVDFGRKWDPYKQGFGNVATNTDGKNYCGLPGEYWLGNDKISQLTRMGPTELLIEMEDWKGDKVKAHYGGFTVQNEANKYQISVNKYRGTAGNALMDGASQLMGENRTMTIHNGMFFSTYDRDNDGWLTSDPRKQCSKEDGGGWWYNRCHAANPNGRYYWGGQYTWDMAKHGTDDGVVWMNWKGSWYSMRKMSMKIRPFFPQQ
Sequence of DDE (fibrin-derived polypeptide) (P02679 114-432): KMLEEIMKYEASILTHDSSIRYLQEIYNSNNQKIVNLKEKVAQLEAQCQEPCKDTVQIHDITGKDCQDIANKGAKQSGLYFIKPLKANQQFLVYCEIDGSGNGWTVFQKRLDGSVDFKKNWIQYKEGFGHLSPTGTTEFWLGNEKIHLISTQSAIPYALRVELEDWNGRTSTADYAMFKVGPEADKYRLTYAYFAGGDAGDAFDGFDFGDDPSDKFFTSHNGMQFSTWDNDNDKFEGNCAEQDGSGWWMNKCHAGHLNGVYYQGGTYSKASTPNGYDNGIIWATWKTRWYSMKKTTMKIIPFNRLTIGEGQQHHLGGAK
Sequence of DDE (fibrin-derived polypeptide) (P02671 36-97): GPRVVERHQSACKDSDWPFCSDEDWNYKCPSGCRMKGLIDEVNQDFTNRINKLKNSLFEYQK
Sequence of DDE (fibrin-derived polypeptide) (P02675 45-152): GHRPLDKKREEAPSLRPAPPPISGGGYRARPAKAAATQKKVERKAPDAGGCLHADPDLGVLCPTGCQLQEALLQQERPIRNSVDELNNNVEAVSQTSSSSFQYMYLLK
Sequence of DDE (fibrin-derived polypeptide) (P02679 27-88): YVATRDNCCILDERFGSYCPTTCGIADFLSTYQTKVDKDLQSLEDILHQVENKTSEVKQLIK

Kd	SMILES
0.21 µM	CC(=O)N[C@@H](CCCNC(=N)N)C(=O)N[C@@H](Cc1c[nH]c2ccccc12)C(=O)N[C@@H](CCC(N)=O)C(=O)N1CCC[C@H]1C(=O)N[C@H]1CSSC[C@@H](C(=O)N[C@@H](Cc2c[nH]c3ccccc23)C(=O)N[C@@H](CC(=O)O)C(=O)N2CCC[C@H]2C(=O)NCC(=O)NCC(=O)NCC(=O)N[C@@H](CCCCNC(=O)c2ccc3c(c2)C(=O)OC32c3ccc(O)cc3Oc3cc(O)ccc32)C(N)=O)NC(=O)[C@H](Cc2ccccc2)NC(=O)[C@H]([C@@H](C)O)NC(=O)[C@H](Cc2c[nH]c3ccccc23)NC(=O)[C@H](CO)NC(=O)[C@H](CCC(=O)O)NC(=O)[C@H](C)NC(=O)[C@@H]2CCCN2C1=O [Seq049-CF5] (Ac-RWQPCPAESWTFCWDPGGGK(5FAM)-NH2; disulfide 5-13)
0.29 µM	CC(=O)NCC(=O)NCC(=O)N[C@@H](CCCNC(=N)N)C(=O)NCC(=O)N[C@@H](Cc1c[nH]c2ccccc12)C(=O)N[C@@H](CCC(N)=O)C(=O)N1CCC[C@H]1C(=O)N[C@H]1CSSC[C@@H](C(=O)N[C@@H](Cc2c[nH]c3ccccc23)C(=O)N[C@@H](CC(=O)O)C(=O)N2CCC[C@H]2C(=O)NCC(=O)NCC(=O)NCC(=O)N[C@@H](CCCCNC(=O)c2ccc3c(c2)C(=O)OC32c3ccc(O)cc3Oc3cc(O)ccc32)C(N)=O)NC(=O)[C@H](Cc2ccccc2)NC(=O)[C@H]([C@@H](C)O)NC(=O)[C@H](Cc2c[nH]c3ccccc23)NC(=O)[C@H](CO)NC(=O)[C@H](CCC(=O)O)NC(=O)[C@H](Cc2c[nH]c3ccccc23)NC(=O)[C@@H]2CCCN2C1=O [Seq015-CF5] (Ac-GGRGWQPCPWESWTFCWDPGGGK(5FAM)-NH2; disulfide 8-16)
0.45 µM	CC(=O)N[C@@H](CO)C(=O)NCC(=O)N[C@@H](CO)C(=O)NCC(=O)NCCOCCOCC(=O)N[C@@H](Cc1c[nH]c2ccccc12)C(=O)N[C@@H](CCC(N)=O)C(=O)N1CCC[C@H]1C(=O)N[C@H]1CSSC[C@@H](C(=O)N[C@@H](Cc2c[nH]c3ccccc23)C(=O)N[C@@H](CC(=O)O)C(=O)N2CCC[C@H]2C(=O)NCC(=O)NCC(=O)NCC(=O)N[C@@H](CCCCNC(=O)c2ccc3c(c2)C(=O)OC32c3ccc(O)cc3Oc3cc(O)ccc32)C(N)=O)NC(=O)[C@H](Cc2ccccc2)NC(=O)[C@H]([C@@H](C)O)NC(=O)[C@H](Cc2c[nH]c3ccccc23)NC(=O)[C@H](CO)NC(=O)[C@H](CCC(=O)O)NC(=O)[C@H](Cc2c[nH]c3ccccc23)NC(=O)[C@@H]2CCCN2C1=O [Seq017-CF5] (Ac-SGSG[AEEA]WQPCPWESWTFCWDPGGGK(5FAM)-NH2; disulfide 9-17)
0.23 µM	CC(=O)NCC(=O)N[C@@H](Cc1c[nH]c2ccccc12)C(=O)N[C@@H](CCC(N)=O)C(=O)N1CCC[C@H]1C(=O)N[C@H]1CSSC[C@@H](C(=O)N[C@@H](Cc2c[nH]c3ccccc23)C(=O)N[C@@H](CC(=O)O)C(=O)N2CCC[C@H]2C(=O)NCC(=O)NCC(=O)NCC(=O)N[C@@H](CCCCNC(=O)c2ccc3c(c2)C(=O)OC32c3ccc(O)cc3Oc3cc(O)ccc32)C(N)=O)NC(=O)[C@H](Cc2ccccc2)NC(=O)[C@H]([C@@H](C)O)NC(=O)[C@H](Cc2c[nH]c3ccccc23)NC(=O)[C@H](CO)NC(=O)[C@H](CCC(=O)O)NC(=O)[C@H](Cc2c[nH]c3ccccc23)NC(=O)[C@@H]2CCCN2C1=O [Seq016-CF5] (Ac-GWQPCPWESWTFCWDPGGGK(5FAM)-NH2; disulfide 5-13)
0.28 µM	C[C@@H](O)[C@@H]1NC(=O)[C@H](Cc2c[nH]c3ccccc23)NC(=O)[C@H](CO)NC(=O)[C@H](CCC(=O)O)NC(=O)[C@H](Cc2c[nH]c3ccccc23)NC(=O)[C@@H]2CCCN2C(=O)[C@@H](NC(=O)[C@@H]2CCCN2C(=O)[C@H](CCC(N)=O)NC(=O)[C@H](Cc2c[nH]c3ccccc23)NC(=O)CNC(=O)[C@@H](N)CCCNC(=N)N)CSSC[C@@H](C(=O)N[C@@H](Cc2c[nH]c3ccccc23)C(=O)N[C@@H](CC(=O)O)C(=O)N2CCC[C@H]2C(=O)NCC(=O)NCC(=O)NCC(=O)N[C@@H](CCCCNC(=O)c2ccc3c(c2)C(=O)OC32c3ccc(O)cc3Oc3cc(O)ccc32)C(N)=O)NC(=O)[C@H](Cc2ccccc2)NC1=O [Seq022-CF5] (H-RGWQPCPWESWTFCWDPGGGK(5FAM)-NH2; disulfide 6-14; N-terminus assumed)
